Paper PMC11680018, “Study of Cytotoxicity of Spiro-Fused [3-Azabicyclo[3.1.0]hexane]oxindoles and Cyclopropa[a]pyrrolizidine-oxindoles Against Tumor Cell Lines” (Pharmaceuticals, 2024)
Read-outs that look alike come from different tables or passages of the source.

How the values were obtained:
[1] = tested on: human melanoma (Sk-mel-2) cell line; test: Cell motility by scratch test; assay type: cell-based; conditions: 10 μg/mL, 36 h, serum-free DMEM; nontreated cells 69.5 ± 17.2
Description: To assess the potential ability of spiro-fused [3-azabicyclo[3.1.0]hexane]oxindoles 4, 11, 12, 18, 24 and cyclopropa[a]pyrrolizidine-2,3′-oxindole 2 to inhibit metastasis associated with cell motility, a scratch test was performed on the human melanoma (Sk-mel-2) cell line. Different fields were analyzed by bright field, and each scratch area was photographed at 0 and 36 h for non-toxic and fast cell visualization. Nontreated Sk-mel-2 cells filled 69.5 ± 17.2, 41.5 ± 5.3, 59.7 ± 8.1, 49.3 ± 5.3, 43.0 ± 12.6, 26.1 ± 2.5 and 55.9 ± 8.6% of the scratched strip while under treatment with spiro-fused oxindole derivatives 2, 4, 11, 12, 18 and 24 cells, respectively.
Cells were seeded at a density of 5 × 10^5 cells per dish onto petri dishes and grown to confluency. A 200 μL pipette tip was used to make scratch wounds and detached cells were removed after that by washing with phosphate-buffered saline. Culture media was replaced with serum-free DMEM in order to inhibit cell proliferation. Compounds to be screened were added at a dose of 10 μg/mL to the cultures and incubated for 36 h. Different fields were analyzed by bright field, and each scratch area was photographed at 0 and 36 h. Images were captured using an Axio Observer Z1 confocal microscope (Carl Zeiss MicroImaging GmbH, Jena, Germany). The percent of wound closure in five randomly chosen fields was calculated with ImageJ software, 1.52v.

[2] = tested on: melanoma (Sk-mel-2) cell line; test: MTS cell proliferation assay, Sk-mel-2; assay type: cell-based, human; conditions: Homo sapiens, MTS
Description: (§1) Cancer cell lines are valuable in vitro model systems that are widely used in cancer research and drug discovery. Their use is mainly linked to their possibility to provide for experimental purposes an unlimited source of biological material. Here, the 24 and 72 h in vitro MTS assay was used to determine the antiproliferative activity of synthesized spiro-fused cyclopropa[a]pyrrolizidine-2,3′-oxindoles and [3-azabicyclo[3.1.0]hexane]-oxindoles against human erythroleukemia (K562), acute T cell leukemia (Jurkat), cervical carcinoma (HeLa), melanoma (Sk-mel-2), breast cancer adenocarcinoma (MCF-7) as well as mouse colon carcinoma (CT26) cell lines. […] The full results of these investigations are presented in the Supporting Information Figures S1–S6. […] An evaluation of the cytotoxicity of the selected compounds towards normal cells (peripheral blood mononuclear cells) was performed additionally to understand their respective relative selectivities. The selectivity index was obtained using the ratio of measured cytotoxicity between the PBMC cells and each of the cancer cell lines, and the results are presented in Table 3.
(§2) The human erythroleukemia (K-562), cervical carcinoma (HeLa) as well as mouse colon carcinoma (CT26) cell lines were obtained from the Bank of Cell Cultures of the Institute of Cytology of the Russian Academy of Sciences; the human melanoma (Sk-mel-2) cell line was obtained from the Bank of Cell Cultures of the Institute of Cytology and Genetics, Siberian Branch of the Russian Academy of Sciences. The acute T cell leukemia (Jurkat) cell line was obtained from the Bank of Cell Cultures of the Institute of Immunology of the Russian Academy of Medical Sciences. The peripheral blood mononuclear cells (PBMC) were isolated from the blood of healthy donors. K-562, Jurkat, MCF-7, PBMC and CT26 cells were grown on RPMI medium (Hyclone, GE Healthcare Life Sciences, Logan, UT, USA) supplemented with 10% (v/v) fetal bovine serum (Hyclone, GE Healthcare Life Sciences, Logan, UT, USA) and gentamicin (Sigma-Aldrich, St. Louis, MO, USA) at 37 °C in a humidified atmosphere with 5% CO2. HeLa and Sk-mel-2 cells were cultured with the same supplements and conditions in DMEM medium (Hyclone, GE Healthcare Life Sciences, Logan, UT, USA).
(§3) To evaluate the in vitro toxicity of the compounds synthesized, cells were seeded into 96-well plates at a density of 5 × 10^3 cells per well. On the next day, the tested compounds were added to the wells at concentrations ranging from 1 to 30 μg/mL, followed by incubation for 1 and 3 days. Cell proliferation was determined by adding 20 μL of MTS reagent (BioVision, Milpitas, CA, USA) stock solution per well. The plates were incubated for 2 h at 37 °C in a humidified, 5% CO2 atmosphere. The plates were then read at 495 nm using a plate spectrophotometer (Multiskan GO, Thermo Fisher Scientific, Waltham, MA, USA). All samples were measured in triplicate.

[3] = tested on: cervical carcinoma (HeLa) cell line; test: MTS cell proliferation assay, HeLa; assay type: cell-based, human; conditions: Homo sapiens, HeLa, MTS
Description: as §1, §2, §3

[4] = tested on: human erythroleukemia (K562) cell line; test: MTS cell proliferation assay, K562; assay type: cell-based; conditions: Homo sapiens, MTS
Description: as §1, §2, §3

[5] = tested on: mouse colon carcinoma (CT26) cell line; test: MTS cell proliferation assay, CT26; assay type: cell-based; conditions: Mus musculus, MTS
Description: as §1, §2, §3

IC50 ([2]; read-out: IC50 Sk-mel-2 24 h, Sk-mel-2, 24 h) [µM] | IC50 ([2]; Sk-mel-2, 72 h, read-out: IC50 Sk-mel-2 72 h) [µM] | IC50 ([3]; read-out: IC50 HeLa 24 h, 24 h) [µM] | IC50 ([3]; 72 h, read-out: IC50 HeLa 72 h) [µM] | IC50 ([4]; read-out: IC50 K562 24 h, K562, 24 h) [µM] | IC50 ([4]; K562, 72 h, read-out: IC50 K562 72 h) [µM] | IC50 ([5]; read-out: IC50 CT26 24 h, CT26, 24 h) [µM] | IC50 ([5]; CT26, 72 h, read-out: IC50 CT26 72 h) [µM] | SMILES | Part of the scratched strip filled by Sk-mel-2 cells [1] [%]
33 ± 3 | 15 ± 1 | 15 ± 2 | 22 ± 2 | 7 ± 1 | 7 ± 1 | > 40 | 19 ± 2 | COC(=O)C1C2(c3ccccc3)C(Cc3c[nH]c4ccccc34)NC3(C(=O)Nc4ccccc43)C12c1ccccc1 (stereo not shown) [Compound 11] | 49.3 ± 5.3
– | – | – | – | – | – | – | – | COC(=O)C1C2(c3ccccc3)C3CCCN3C3(C(=O)Nc4ccc(Cl)cc43)C12c1ccccc1 (stereo not shown) [Compound 12] | 43.0 ± 12.6
